Experimental findings from patent US7339042B2, “Gene delivery to tumors” (University of Florida Research Foundation, Inc., priority 2003, dated 2008) are described below.

Series [1] has as its system rat cerebral arteries. Nature of the series: Cell viability staining of arteries (propidium iodide, H3334) after peptide. In kind it is cell-based. The note with it: after treatment with peptide. The procedure:
No PI statined smooth muscle cell nuclei were observed.
Effect of peptide on endothelial and smooth muscle function was evaluated by histamine (0.3 and 1 μM) and bradykinin (0.5 μM) (endothelium-dependent vasodilators) and 16 and 60 mM KCl (results in dilation and constriction of arteries by hyperpolarizing and depolarizing smooth muscle, respectively). These drug solutions were added to the superfusate and applied to the arteries extraluminally for 10 to 15 min before and after intraluminal perfusion with peptides. Effects of these agents were expressed as percent change in myogenic tone (decrease for dilators and increase for constrictors). Experiments were concluded by exposing the arteries to calcium free PCSF to obtain the passive diameter. Cell viability was determined by adding H3334 (Hoechst viability stain, final concentration 1 μM) and propidium iodide (final concentration 1 μM) to the arteriograph after the peptide incubation. Fluorescent micrographs were taken of the vessels after incubation with peptides and following addition of the vital stains using Till Photonics imaging system (Martinsried, Germany).

The subject of series [2] is T98G cells. As to the kind of experiment: Fusion peptide cell killing, propidium iodide/FACS viability, T98G cells. It is filed as cell-based, human. The procedure:
(§1) Other experiments were performed using two glioma cell lines, i.e., T98G and RG2. 1×10^6 cells per well were incubated in 6-well plates with peptides in complete media for 1 hr. Cells were removed from the plate using a cell stripper and the percentage of viable cells was determined by staining with propidium iodide and analyzing by fluorescence activated cell sorting (FACS).
(§2) Cell viability studies were performed by plating the cells under the same conditions as the uptake studies. Cells were incubated with fluorescent peptides for 1 hr at 37° C. The cells were removed from the plate using cell striper. They were labeled with propidium iodide and fluorescein-AM. Percent PI positive cells were determined by FACS.

Experiment in series [3]: as above
In kind it is cell-based, human. The conditions noted are these: peptides in complete media for 1 hr, Table 2, read-out: % Viable Cells. The procedure:
as §1, §2

The structures appear in SMILES notation.

Regarding `C[C@H](N)C(=O)NCC(=O)NCC(=O)NCC(=O)N[C@@H](Cc1ccc(O)cc1)C(=O)NCC(=O)N[C@@H](CCCNC(=N)N)C(=O)N[C@@H](CCCCN)C(=O)N[C@@H](CCCCN)C(=O)N[C@@H](CCCNC(=N)N)C(=O)N[C@@H](CCCNC(=N)N)C(=O)N[C@@H](CCC(N)=O)C(=O)N[C@@H](CCCNC(=N)N)C(=O)N[C@@H](CCCNC(=N)N)C(=O)N[C@@H](CCCNC(=N)N)C(=O)O` [Tat], the “propidium iodide staining of blood vessels” value in series [1] is recorded as “no PI stained nuclei”. The “% killing (toxicity)” value in series [2] (10 μM peptide, 1 hr) is “no toxicity”. For the same compound, the “% Viable Cells” value in series [2] (peptides in complete media for 1 hr, Table 2) is “ineffective”. The viability in series [3] was found to be 94.9%.
